The target in this assay is soluble guanylate cyclase (human GUCYA3 and GUCYB3) overexpressed in CHO cells (Homo sapiens (Human), UniProt Q02153). Briefly: CHO cellular assay (cGMP production, Cisbio cGMP HTRF kit). It counts as cell-based. The settings on record: CHO GUCY clone 8E10, cGMP production, assay buffer with 1 mM IBMX and 20 uM ODQ, 1 h room temperature; minimum quantification limit 0.5 nM (listed 0.5 nM means ≤0.5 nM). In outline: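 Stable CHO-K1 clone 8E10 expressing human sGC (GUCYA3/GUCYB3), 3000 cells/well, exposed 1 h at room temperature to activators in HBSS, 0.1% BSA, 1 mM IBMX, 20 uM ODQ, 0.5% DMSO final. cGMP was measured by HTRF and interpolated from a standard curve. EC50 came from a 4-parameter sigmoidal fit.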
For orientation: TR-FRET usually uses a lanthanide donor and a delayed reading to cut background.

pEC50: −log10 of the molar value. Where only a bound is given, the exact number is not on record here.

Broadly, the pEC50 is the negative decadic logarithm of the EC50, by convention in mol/L. Read a high pEC50 as a low EC50.

soluble guanylate cyclase (human GUCYA3 and GUCYB3) overexpressed in CHO cells, sequence (Q02108 whole entry partner): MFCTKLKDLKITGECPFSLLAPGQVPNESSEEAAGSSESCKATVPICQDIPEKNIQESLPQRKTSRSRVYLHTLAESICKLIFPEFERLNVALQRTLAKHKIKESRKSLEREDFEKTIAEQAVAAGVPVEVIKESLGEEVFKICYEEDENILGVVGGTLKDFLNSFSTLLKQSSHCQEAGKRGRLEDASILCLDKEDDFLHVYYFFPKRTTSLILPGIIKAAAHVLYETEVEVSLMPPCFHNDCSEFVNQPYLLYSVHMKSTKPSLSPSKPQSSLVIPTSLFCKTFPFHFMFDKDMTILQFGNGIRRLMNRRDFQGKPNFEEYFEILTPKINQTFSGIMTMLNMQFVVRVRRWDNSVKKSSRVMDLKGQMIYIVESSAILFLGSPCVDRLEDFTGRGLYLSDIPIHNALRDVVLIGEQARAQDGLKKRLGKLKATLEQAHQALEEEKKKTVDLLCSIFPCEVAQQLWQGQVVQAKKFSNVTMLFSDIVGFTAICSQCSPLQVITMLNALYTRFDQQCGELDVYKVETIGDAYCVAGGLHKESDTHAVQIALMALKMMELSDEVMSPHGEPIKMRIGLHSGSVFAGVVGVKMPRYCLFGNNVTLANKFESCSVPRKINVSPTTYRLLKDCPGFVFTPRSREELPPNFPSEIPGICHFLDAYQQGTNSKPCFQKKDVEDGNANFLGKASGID
soluble guanylate cyclase (human GUCYA3 and GUCYB3) overexpressed in CHO cells, sequence (Q02153 whole entry): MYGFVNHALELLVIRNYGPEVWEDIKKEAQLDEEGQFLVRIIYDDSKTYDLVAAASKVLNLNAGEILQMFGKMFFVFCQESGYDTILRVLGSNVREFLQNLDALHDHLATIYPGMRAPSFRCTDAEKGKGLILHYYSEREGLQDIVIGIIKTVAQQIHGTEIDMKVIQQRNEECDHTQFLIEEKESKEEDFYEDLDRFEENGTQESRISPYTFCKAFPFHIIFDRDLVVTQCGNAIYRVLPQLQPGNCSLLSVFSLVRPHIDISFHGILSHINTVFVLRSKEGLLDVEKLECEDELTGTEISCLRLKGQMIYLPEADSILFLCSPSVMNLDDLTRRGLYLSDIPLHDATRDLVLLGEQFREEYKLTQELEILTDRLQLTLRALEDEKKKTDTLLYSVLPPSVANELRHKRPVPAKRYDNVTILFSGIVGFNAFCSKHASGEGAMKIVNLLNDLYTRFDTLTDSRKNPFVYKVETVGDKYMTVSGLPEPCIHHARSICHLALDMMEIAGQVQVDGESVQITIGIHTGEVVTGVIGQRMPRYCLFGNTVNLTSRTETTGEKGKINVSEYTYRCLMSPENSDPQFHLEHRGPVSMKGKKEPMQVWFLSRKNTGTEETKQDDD

Turning to `CCc1cc(CN2CC(C)c3cccc(-c4cccc(-n5ncc(C(=O)O)c5CC)n4)c32)ccc1C1CCN(C(=O)C2CC2)CC1` (single isomer, unassigned; (-)) [(−)-20-1, (−)-1-(6-(1-(4-(1-(Cyclopropanecarbonyl)piperidin-4-yl)-3-ethylbenzyl)-3-methylindolin-7-yl)pyridin-2-yl)-5-ethyl-1H-pyrazole-4-carboxylic acid], the pEC50 is ≥ 9.30.

As to `CCc1cc(CN2CC(C)c3cccc(-c4cccc(-n5ncc(C(=O)O)c5C)n4)c32)ccc1C1CCN(C(=O)C2CC2)CC1` (single isomer, unassigned; (-)) [(−)-20-3, (−)-1-(6-(1-(4-(1-(Cyclopropanecarbonyl)piperidin-4-yl)-3-ethylbenzyl)-3-methylindolin-7-yl)pyridin-2-yl)-5-methyl-1H-pyrazole-4-carboxylic acid], the pEC50 was ≥ 9.30.

In turn, `Cc1cc(C2CCN(C(=O)C3CC3)CC2)ccc1OC1CCc2cccc(-c3cccc(-n4ncc(C(=O)O)c4C(F)(F)F)n3)c21` (single isomer, unassigned; (-)) [Example 3b] showed a pEC50 of 8.16.

`O=C(O)c1cnn(-c2cccc(-c3cccc4c3C(Oc3ccc5c(c3)CCN(Cc3ccccn3)C5)CC4)n2)c1C(F)(F)F` (single isomer, unassigned; (-)) [Example 4b, (−)-1-(6-(3-((2-(Pyridin-2-ylmethyl)-1,2,3,4-tetrahydroisoquinolin-6-yl)oxy)-2,3-dihydro-1H-inden-4-yl)pyridin-2-yl)-6-(trifluoromethyl)-1H-pyrazole-4-carboxylic Acid]: the pEC50 is 6.94.

In the case of `CCc1cc(CN2CC(C)c3cccc(-c4cccc(-n5ncc(C(=O)O)c5C(F)(F)F)n4)c32)ccc1C1CCN(C(=O)C2CC2)CC1` (single isomer, unassigned; (-)) [Example 19b, (−)-1-(6-(1-(4-(1-(Cyclopropanecarbonyl)piperidin-4-yl)-3-ethylbenzyl)-3-methylindolin-7-yl)pyridin-2-yl)-5-(trifluoromethyl)-1H-pyrazole-4-carboxylic Acid], the pEC50 is ≥ 9.30.

`CCc1cc(NC2CCc3cccc(-c4cccc(-n5ncc(C(=O)O)c5CC)n4)c32)ccc1C1CCN(C(=O)[C@H](C)O)CC1` (single isomer, unassigned; (-)) [Example 48b] showed a pEC50 of 7.96.

`CCC[C@H](O)C(=O)N1CCC(c2ccc(NC3CCc4cccc(-c5cccc(-n6ncc(C(=O)O)c6CC)n5)c43)cc2CC)CC1` (single isomer, unassigned; (-)) [Example 49b] gave a pEC50 of 7.70.

Take `O=C(O)c1cnn(-c2cccc(-c3cccc4c3C(Oc3ccc(C5CCN(C(=O)C6CC6)CC5)cc3C(F)(F)F)CC4)n2)c1C(F)(F)F` (single isomer, unassigned; enantiomer-1) [61. b). (enantiomer-1), (+)- or (−)-1-(6-(3-(4-(1-(Cyclopropanecarbonyl)piperidin-4-yl)-2-(trifluoromethyl)phenoxy)-2,3-dihydro-1H-inden-4-yl)pyridin-2-yl)-5-(trifluoromethyl)-1H-pyrazole-4-carboxylic acid]: the pEC50 was 7.82.

Regarding `O=C(O)c1cnn(-c2cccc(-c3cccc4c3C(Oc3ccc(C5CCN(C(=O)C6CC6)CC5)cc3C(F)(F)F)CC4)n2)c1C(F)(F)F` (single isomer, unassigned; enantiomer-2) [61. b). (enantiomer-2), (−)- or (+)-1-(6-(3-(4-(1-(cyclopropanecarbonyl)piperidin-4-yl)-2-(trifluoromethyl)phenoxy)-2,3-dihydro-1H-inden-4-yl)pyridin-2-yl)-5-(trifluoromethyl)-1H-pyrazole-4-carboxylic acid], the negative-log EC50 (pEC50) is 8.70.

Consider `Cc1cc(C2CCN(C(=O)C3CC3)CC2)ccc1CN1CCc2cccc(-c3cccc(-n4ncc(C(=O)O)c4C)n3)c21` [Example 21-1, 1-(6-(1-(4-(1-(Cyclopropanecarbonyl)piperidin-4-yl)-2-methylbenzyl)indolin-7-yl)pyridin-2-yl)-5-methyl-1H-pyrazole-4-carboxylic acid], for which the pEC50 is ≥ 9.30.

In turn, “(−)-Ethyl-1-(6-(3-((3-ethyl-4-(1-(isopropoxycarbonyl)piperidin-4-yl)phenyl)amino)-2,3-dihydro-1H-inden-4-yl)pyridin-2-yl)-1H-pyrazole-4-carboxylic Acid [Example 51b]” showed a pEC50 of 8.52.

These data come from patent publication US10550102B2, “Indane and indoline derivatives and the use thereof as soluble guanylate cyclase activators” (NOVARTIS AG, priority 2014, dated 2020).
